Series [1] addresses T1, hCRF1 (Homo sapiens, UniProt P34998).
T1 construct: endogenous in cells; host or cells: Human Y-79 retinoblastoma cells
T1 sequence (P34998 24-415): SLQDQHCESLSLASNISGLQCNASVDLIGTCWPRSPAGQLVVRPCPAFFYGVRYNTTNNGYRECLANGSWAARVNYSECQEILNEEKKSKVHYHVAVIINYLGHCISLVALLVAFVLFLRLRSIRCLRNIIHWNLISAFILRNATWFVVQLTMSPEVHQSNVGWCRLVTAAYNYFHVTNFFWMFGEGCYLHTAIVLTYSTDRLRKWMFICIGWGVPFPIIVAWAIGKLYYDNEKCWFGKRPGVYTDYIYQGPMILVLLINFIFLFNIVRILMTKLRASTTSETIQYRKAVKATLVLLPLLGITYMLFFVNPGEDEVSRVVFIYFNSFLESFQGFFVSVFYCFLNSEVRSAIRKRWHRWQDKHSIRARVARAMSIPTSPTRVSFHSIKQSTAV
The experiment in a line: Intracellular cAMP stimulation assay (CRF1 functional assay). It is filed as cell-based. As to conditions: inhibition of hCRF (30 nM)-stimulated cAMP accumulation in human Y-79 retinoblastoma cells, read-out: hCRF1 pIC50 (converted). The method, then: Intracellular cAMP Stimulation Assay
Human Y-79 retinoblastoma cells are grown in RPMI 1640 medium with 15% FBS. Measures of cAMP accumulation are performed by using NEN Adenylyl Cyclase FlashPlate kit (SMP004). The cells are separated from culture medium, washed twice with PBS (150×g, 8 min), resuspended (2E+6 cells/ml) in Stimulation Buffer (provided in the kit), and then added to 96-well FlashPlates, (50,000 cells per well). Various concentrations of test compounds are incubated with the cells for 20 min prior to the addition of hCRF (30 nM). The total assay volume is 100 μl. The assay is terminated after 20 min after addition of the hCRF by addition of Detection Buffer and [^125I]cAMP. After 2 hr at room temperature the mixtures are aspirated and the bound radioactivity is measured with a Packard TopCount. The potency (IC50 values) of test compounds in inhibiting the hCRF-stimulated accumulation of cAMP is determined by nonlinear regression analyses with interactive curve-fitting procedures.
The compounds of the present invention were active in receptor binding and functional assays.
(In general: Changes in cAMP serve as a functional read-out for many G protein-coupled receptors.)

Structures can show the parent of a compound that is named as a salt.

As usually defined, the melting point is the temperature of the solid-liquid transition.

Take `CCN(CCOC)c1c2cccc(-c3c(C)cc(C)cc3C)c2nn1C.Cl`: the melting point was in the range of 142 to 146 °C. Same read-out and setting: under `CCCN(CCC)c1c2cccc(-c3ccc(OC)cc3C)c2nn1C.Cl` stands 60 to 70 °C; under `CCCN(Cc1c2cccc(-c3c(C)cc(C)cc3C)c2nn1C)CC1CC1.Cl`, 125.8 to 133.5 °C.

Compound `CCCN(CC1CC1)c1c2cccc(-c3ccc(Cl)cc3Cl)c2nn1C.Cl` gave a melting point of 137 to 139 °C. The same measure, in the same setting: to `CCCN(CCC)c1c2cccc(-c3ccc(OC)cc3OC)c2nn1C.Cl` belongs 62 to 64.3 °C.

`CC/C=C(\CCC)c1c2cccc(-c3ccc(OC)nc3C)c2nn1C.Cl` displayed a melting point of 84.7 to 89.4 °C. `CCC=C(CCC)c1c2cccc(-c3ccc(Cl)cc3Cl)c2nn1C` (as salt: hydrochloride) [Ia, 7-(2,4-Dichloro-phenyl)-2-methyl-3-(1-propyl-but-1-enyl)-2H-indazole hydrochloride] came in with a melting point of 147 to 152 °C. The same measure, in the same setting: under `CCCN(CCC)c1c2cccc(-c3c(C)cc(C)cc3C)c2nn1C` (as salt: hydrochloride) [Ic, [2-Methyl-7-(2,4,6-trimethyl-phenyl)-2H-indazol-3-yl]-dipropyl-amine] stands 154 to 158 °C; under `CCCN(CCOC)c1c2cccc(-c3c(C)cc(C)cc3C)c2nn1C` (as salt: hydrochloride) [Ie, (2-Methoxy-ethyl)-[2-methyl-7-(2,4,6-trimethyl-phenyl)-2H-indazol-3-yl]-propyl-amine], 86 to 121 °C; under `COCCN(CCOC)c1c2cccc(-c3c(C)cc(C)cc3C)c2nn1C` (as salt: hydrochloride) [If, Bis-(2-methoxy-ethyl)-[2-methyl-7-(2,4,6-trimethyl-phenyl)-2H-indazol-3-yl]-amine], 140 to 142 °C. For `CCCN(CCC)c1c2cccc(-c3ccc(Cl)cc3Cl)c2nn1C` (as salt: hydrochloride) [[7-(2,4-Dichloro-phenyl)-2-methyl-2H-indazol-3-yl]-dipropyl-amine], the melting point fell in the range of 153 to 157 °C.

In the case of `CCC=C(CCC)c1c2cccc(-c3ccc(Cl)cc3Cl)c2nn1C` [Ia, 7-(2,4-Dichloro-phenyl)-2-methyl-3-(1-propyl-but-1-enyl)-2H-indazole hydrochloride], in series [1], the IC50 was 63.1 nM. `Cn1nc2c(-c3ccc(Cl)cc3Cl)cccc2c1C(=O)N1CCOCC1` [Iae, [7-(2,4-Dichloro-phenyl)-2-methyl-2H-indazol-3-yl]-morpholin-4-yl-methanone] registered a melting point of 197 to 200.8 °C. The same measure, in the same setting: under `Cn1nc2c(-c3ccc(Cl)cc3Cl)cccc2c1CN1CCOCC1` [Iag, 7-(2,4-Dichloro-phenyl)-2-methyl-3-morpholin-4-ylmethyl-2H-indazole] stands 152.3 to 154.8 °C.

For the compound `CCC=C(CCC)c1c2cccc(-c3c(C)cc(C)cc3C)c2nn1C.Cl` [Ib, 2-Methyl-3-(1-propyl-but-1-enyl)-7-(2,4,6-trimethyl-phenyl)-2H-indazole hydrochloride], the melting point lay within 132 to 135 °C. Moreover, in series [1], the IC50 is 50.1 nM. As for `CCCN(CCC)c1c2cccc(-c3c(C)cc(C)cc3C)c2nn1C` [Ic, [2-Methyl-7-(2,4,6-trimethyl-phenyl)-2H-indazol-3-yl]-dipropyl-amine], the IC50 in series [1] is 79.4 nM. Regarding `CCCN(CC1CC1)C(=O)c1c2cccc(-c3c(C)cc(C)cc3C)c2nn1C` [Im, 2-Methyl-7-(2,4,6-trimethyl-phenyl)-2H-indazole-3-carboxylic acid cyclopropylmethyl-propyl-amide], the melting point lay in the range of 112.5 to 113.8 °C.

Regarding `CCCN(Cc1cccs1)c1c2cccc(-c3c(C)cc(C)cc3C)c2nn1C` [Io, [2-Methyl-7-(2,4,6-trimethyl-phenyl)-2H-indazol-3-yl]-propyl-thiophen-2-ylmethyl-amine trifluoro-acetic acid salt], the IC50 in series [1] was 79.4 nM. The same measure, in the same setting: under `CCCN(CC1CC1)c1c2cccc(-c3c(C)cc(C)cc3C)c2nn1C` [Ip, Cyclopropylmethyl-[2-methyl-7-(2,4,6-trimethyl-phenyl)-2H-indazol-3-yl]-propyl-amine trifluoroacetic acid salt] stands 50.1 nM.
